Measurements published in US20120065228A1, “COMPOSITIONS AND METHODS FOR TREATING, CONTROLLING, REDUCING, OR AMELIORATING OCULAR INFLAMMATORY WITH LOWER RISK OF INCREASED INTRAOCULAR PRESSURE” (priority 2007, published 2012).

Assays:
Type in all cases: in vivo, human
ocular signs = assay: Clinical dose ranging study after cataract surgery: ocular signs (biomicroscopy)
Excerpt: (§1) There were 8 treatment groups in this study, consisting of three drug doses, vehicle and three dosing frequencies (see also Table 4-1): • Group A: 1% BOL-303242-X ophthalmic suspension, two times per day (BID) • Group B: 2% BOL-303242-X ophthalmic suspension, one time per day (QD) • Group C: 2% BOL-303242-X ophthalmic suspension, BID • Group D: 2% BOL-303242-X ophthalmic suspension, four times per day (QID) • Group E: 3% BOL-303242-X ophthalmic suspension, QD • Group F: 3% BOL-303242-X ophthalmic suspension, BID • Group G: 3% BOL-303242-X ophthalmic suspension, QID • Group H: Vehicle for BOL-303242-X (divided equally into QID, BID, and QD)
(§2) Subjects self-administered study drug, instilling 1 to 2 drops of study drug into the study eye: QID at approximately 4 hour intervals, BID at approximately 12 hour intervals, or QD once in the morning, for 14 days. The initial dose occurred in the clinic at Visit 3 and the final dose was on the day before Visit 6 (postoperative Day 15±1 day). Subjects were examined and evaluated according to the following schedule:
(§3) Visit 1 (screening), Visit 2 (cataract surgery), Visit 3 (postoperative Day 1), Visit 4 (postoperative Day 3±1 day), Visit 5 (postoperative Day 8±1 day), Visit 6 (postoperative Day 15±1 day), Visit 7 (postoperative Day 18±1 day). Subject assessments included adverse events (AEs), concomitant medications, ocular symptoms, pinholed Snellen visual acuity (VA), intraocular pressure (IOP), ocular signs (biomicroscopy), fundoscopy, and study drug drop sensation. In addition, subject diaries were collected and reviewed for accuracy and treatment compliance.
Safety: The safety endpoints in this study were: incidence of AEs, change in IOP, ocular signs (biomicroscopy), Snellen VA, fundoscopy, study drug drop sensation assessment.

[1] = tested on: pain following cataract surgery; assay: Clinical dose ranging study after cataract surgery: Grade 0 pain
Excerpt: as §1
(§4) At Visit 3 (postoperative Day 1, 18 to 34 hours following surgery), subjects meeting all eligibility criteria were randomized to one of the treatment groups continuing to be studied, including vehicle, in a 1:1 ratio.
as §2, §3
(§5) Secondary Efficacy: The secondary efficacy endpoints for this study were the proportions of subjects with Grade 0 pain at Visit 5 (postoperative Day 8) and at each visit, complete resolution of AC cells at each visit, complete resolution of AC cells and flare at each visit, complete resolution of AC flare at each visit, change from baseline to each follow-up visit in AC cells and AC flare combined and separately, ocular symptoms.

[2] = tested on: inflammation following cataract surgery; assay: Clinical dose ranging study after cataract surgery: resolution of anterior chamber (AC) cells and flare
Excerpt: as §1, §4, §2, §3
Among other criteria for inclusion in this study, subjects were those who: • were to be at least 18 years of age on the date the informed consent form (“ICF”) was signed and with the capacity to voluntarily provide consent; • were candidates for routine, uncomplicated cataract surgery (phacoemulsification with posterior chamber intraocular lens (“IOL”) implantation, not combined with any other surgery) in the study eye; • in the Investigator's opinion, had potential postoperative pinholed Snellen visual acuity (“VA”) of at least 20/200 or pinholed Decimal VA of 0.1 in the study eye; • had undergone routine, uncomplicated cataract surgery (phacoemulsification with posterior chamber IOL implantation, not combined with any other surgery) in the study eye; and • had ≧Grade 2 anterior chamber (“AC”) cells in the study eye.
Primary Efficacy: The primary efficacy endpoint for this study was the proportion of subjects with complete resolution of AC cells at Visit 5 (postoperative Day 8). Complete resolution of AC cells is defined as Grade 0 cells.
as §5

[3] = 1% BID, Visit 6 (postoperative Day 15)
[4] = 1% BID, Visit 7 (postoperative Day 18)
[5] = 2% BID, Visit 6 (postoperative Day 15)
[6] = 2% QD, Visit 6 (postoperative Day 15)
[7] = 2% QID, Visit 6 (postoperative Day 15)
[8] = 2% QID, Visit 7 (postoperative Day 18)
[9] = 3% BID, Visit 4 (postoperative Day 3)
[10] = 3% BID, Visit 5 (postoperative Day 8)
[11] = 3% BID, Visit 6 (postoperative Day 15)
[12] = 3% QD, Visit 4 (postoperative Day 3)
[13] = 3% QD, Visit 5 (postoperative Day 8)
[14] = 3% QD, Visit 6 (postoperative Day 15)
[15] = 3% QD, Visit 7 (postoperative Day 18)
[16] = 3% QID, Visit 5 (postoperative Day 8)
[17] = 3% QID, Visit 6 (postoperative Day 15)
[18] = 1% BID, Visit 5 (postoperative Day 8)
[19] = 2% QD, Visit 5 (postoperative Day 8)
[20] = 2% QID, Visit 5 (postoperative Day 8)
[21] = 3% BID, Visit 7 (postoperative Day 18)
[22] = 3% QID, Visit 7 (postoperative Day 18)

SMILES: Cc1ccc2c(NCC(O)(CC(C)(C)c3cc(F)cc4c3OCC4)C(F)(F)F)cccc2n1 (stereo not shown) [BOL-303242-X]
- Proportions of subjects with increases in scores for AC cells (ocular signs; Visit 4 (2% QD) and Visit 5 (2% QID, 3% QID)): statistically significantly lower proportions
- Proportions of subjects with increases in scores for ciliary flush (ocular signs; Visit 4 (2% QD), Visit 5 (1% BID, 2% QID, 3% BID, 3% QID), and Visit 7 (2% QID and 3% QD)): statistically significantly lower proportions
- Proportions of subjects with increases in scores for AC flare (ocular signs; Visit 4 (2% QID) and Visit 5 (3% BID)): statistically significantly lower proportions
- Proportions of subjects with increases in scores for chemosis (ocular signs; Visit 4 (3% BID)): statistically significantly lower proportions
- Proportions of subjects with increases in scores for palpebral conjunctival injection (ocular signs; Visit 5 (1% BI), 3% BID)): statistically significantly lower proportions
- Proportions of subjects with increases in scores for bulbar conjunctival injection (ocular signs; Visit 5 (2% QID, 3% BID, 3% QID)): statistically significantly lower proportions
- Proportions of subjects with increases in scores for anterior vitreous haze, corneal edema, corneal staining, eyelid erythema, hyphema, and posterior synechiae (ocular signs; any dose groups at any postoperative visits): No statistically significant differences
- Proportion of subjects with Grade 0 pain [1, 3]: 61.7%
- Proportion of subjects with Grade 0 pain [1, 4]: 61.7%
- Proportion of subjects with Grade 0 pain [1, 5]: 57.1%
- Proportion of subjects with Grade 0 pain ([1]; 2% BID, Visit 7 (postoperative Day 18)): 53.6%
- Proportion of subjects with Grade 0 pain [1, 6]: 57.1%
- Proportion of subjects with Grade 0 pain ([1]; 2% QD, Visit 7 (postoperative Day 18)): 57.1%
- Proportion of subjects with Grade 0 pain ([1]; 2% QID (printed 296 QID), Visit 5 (postoperative Day 8)): 78.396%
- Proportion of subjects with Grade 0 pain ([1]; 2% QID, Visit 4 (postoperative Day 3)): 73.3%
- Proportion of subjects with Grade 0 pain [1, 7]: 75.0%
- Proportion of subjects with Grade 0 pain [1, 8]: 71.7%
- Proportion of subjects with Grade 0 pain [1, 9]: 70.0%
- Proportion of subjects with Grade 0 pain [1, 10]: 75.0%
- Proportion of subjects with Grade 0 pain [1, 11]: 68.3%
- Proportion of subjects with Grade 0 pain [1, 12]: 81.4%
- Proportion of subjects with Grade 0 pain [1, 13]: 71.2%
- Proportion of subjects with Grade 0 pain [1, 14]: 71.2%
- Proportion of subjects with Grade 0 pain [1, 15]: 66.1%
- Proportion of subjects with Grade 0 pain ([1]; 3% QID, Visit 4 (postoperative Day 3)): 66.7%
- Proportion of subjects with Grade 0 pain [1, 16]: 70.0%
- Proportion of subjects with Grade 0 pain [1, 17]: 70.0%
- Proportion of subjects with complete resolution of AC flare ([2]; 1% BID (printed 196 BID), Visit 7 (postoperative Day 18)): 56.7%
- Proportion of subjects with complete resolution of AC cells [2, 18]: 21.7%
- Proportion of subjects with complete resolution of AC cells and flare combined [2, 18]: 20.0%
- Proportion of subjects with complete resolution of AC flare [2, 18]: 41.7%
- Proportion of subjects with complete resolution of AC flare [2, 3]: 66.7%
- Proportion of subjects with complete resolution of AC cells [2, 4]: 41.7%
- Proportion of subjects with complete resolution of AC cells and flare combined [2, 4]: 41.7%
- Proportion of subjects with complete resolution of AC flare ([2]; 2% BID, Visit 5 (postoperative Day 8)): 50.0%
- Proportion of subjects with complete resolution of AC flare [2, 5]: 60.7%
- Proportion of subjects with complete resolution of AC cells [2, 19]: 21.4%
- Proportion of subjects with complete resolution of AC cells and flare combined [2, 19]: 21.4%
- Proportion of subjects with complete resolution of AC flare [2, 19]: 42.9%
- Proportion of subjects with complete resolution of AC cells and flare combined [2, 6]: 35.7%
- Proportion of subjects with complete resolution of AC flare ([2]; 2% QID (printed 2% ND), Visit 6 (postoperative Day 15)): 66.7%
- Proportion of subjects with complete resolution of AC cells [2, 20]: 28.3%
- Proportion of subjects with complete resolution of AC cells and flare combined [2, 20]: 26.7%
- Proportion of subjects with complete resolution of AC flare [2, 20]: 51.7%
- Proportion of subjects with complete resolution of AC cells [2, 7]: 43.3%
- Proportion of subjects with complete resolution of AC cells and flare combined [2, 7]: 41.7%
- Proportion of subjects with complete resolution of AC cells [2, 8]: 53.396%
- Proportion of subjects with complete resolution of AC cells and flare combined [2, 8]: 53.3%
- Proportion of subjects with complete resolution of AC flare [2, 8]: 66.7%
- Proportion of subjects with complete resolution of AC flare [2, 9]: 38.3%
- Proportion of subjects with complete resolution of AC cells [2, 10]: 25.0%
- Proportion of subjects with complete resolution of AC cells and flare combined [2, 10]: 23.3%
- Proportion of subjects with complete resolution of AC flare [2, 10]: 51.7%
- Proportion of subjects with complete resolution of AC cells [2, 11]: 38.3%
- Proportion of subjects with complete resolution of AC cells and flare combined [2, 11]: 38.3%
- Proportion of subjects with complete resolution of AC flare [2, 11]: 51.7%
- Proportion of subjects with complete resolution of AC cells [2, 21]: 43.3%
- Proportion of subjects with complete resolution of AC cells and flare combined [2, 21]: 43.3%
- Proportion of subjects with complete resolution of AC flare [2, 21]: 56.7%
- Proportion of subjects with complete resolution of AC flare [2, 12]: 35.6%
- Proportion of subjects with complete resolution of AC cells [2, 13]: 25.4%
- Proportion of subjects with complete resolution of AC cells and flare combined [2, 13]: 23.7%
- Proportion of subjects with complete resolution of AC flare [2, 13]: 55.9%
- Proportion of subjects with complete resolution of AC cells [2, 14]: 47.5%
- Proportion of subjects with complete resolution of AC cells and flare combined [2, 14]: 47.5%
- Proportion of subjects with complete resolution of AC flare [2, 14]: 66.1%
- Proportion of subjects with complete resolution of AC cells [2, 15]: 47.5%
- Proportion of subjects with complete resolution of AC cells and flare combined [2, 15]: 47.5%
- Proportion of subjects with complete resolution of AC flare [2, 15]: 57.6%
- Proportion of subjects with complete resolution of AC cells [2, 16]: 30.0%
- Proportion of subjects with complete resolution of AC cells and flare combined [2, 16]: 30.0%
- Proportion of subjects with complete resolution of AC flare [2, 16]: 55.0%
- Proportion of subjects with complete resolution of AC cells [2, 17]: 38.3%
- Proportion of subjects with complete resolution of AC cells and flare combined [2, 17]: 36.7%
- Proportion of subjects with complete resolution of AC flare [2, 17]: 61.7%
- Proportion of subjects with complete resolution of AC cells [2, 22]: 46.7%
- Proportion of subjects with complete resolution of AC cells and flare combined [2, 22]: 45.0%
- Proportion of subjects with complete resolution of AC flare [2, 22]: 58.3%
- Anterior chamber cells, change from baseline, compared to vehicle ([2]; Visit 4: 1% BID, 2% QID, 3% QD, 3% QID): Statistically significant mean decreases
- Anterior chamber cells, change from baseline, compared to vehicle ([2]; Visit 5: 1% BID, 2% QD, 2% QID, 3% QD, 3% BID, 3% QID): Statistically significant mean decreases
- Anterior chamber cells, change from baseline, compared to vehicle ([2]; Visit 6: 1% BID, 2% QID, QD, 3% BID, 3% QID): Statistically significant mean decreases
- Anterior chamber cells, change from baseline, compared to vehicle ([2]; Visit 7: 1% BID. 2% QD, 2% QID, QD, 3% BID, 3% QID): Statistically significant mean decreases
